We go through one molecule from patent publication US12558348B2, “Bioactive phytochemicals” (Phytoquest Limited, priority 2019, dated 2026).

As usually defined, the inhibition is the change of the read-out against control, counted positive when it falls. A low value points to a weak effect. Broadly, the IC50 is the midpoint of a concentration-inhibition curve.

One test has as its system CD44-HA binding. Kind of test: CD44-HA (hyaluronic acid) binding activity in THP-1 cells by ELISA. The note with it: for CD44-HA: LPS-stimulated THP-1; for % reduction in CD44-HA levels: vs LPS control. Format: cell-based, human. The method, then:
The THP-1 cells were cultured in RPMI media supplemented with mercaptoethanol & glutamine to get 80% confluence in the culture flask, then aspirated and centrifuged at 1500 rpm for 5 mins. The cell pellet was then resuspended in 1 ml of RPMI complete media and counted conventionally using a hemocytometer. The cells (5×106) were incubated with Phorbol 12-myristate 13-acetate (PMA) (10 ng/ml) in separate dishes to cause differentiation of the THP-1 cells. To determine the CD44-HA binding activity, THP-1 cells were pretreated for 1 hr with idoBR1 or cucumber extract-Q-actin (batch no. B17CF001) at the concentrations 100 μg/ml to 12.5 μg/ml and 200 μg/ml to 25 μg/ml respectively followed by 24 hr LPS (1 μg/ml) stimulation. Post incubation, the cell lysates were taken for further analysis.
Anti-CD44 monoclonal antibody (Invitrogen, 2 μg) was coated to each well in 96-well plates in 50 mM carbonate/bicarbonate buffer (pH 9.6) and incubated overnight at 4° C. The unbound antibodies were removed using PBS with 0.05% Tween 20 (PBS-T wash solution). The wells were blocked using 1% BSA and incubated for 1 hr at 37° C. The wells were washed thrice thoroughly using PBS-T wash solution by adding 200 μl into wells. 50 μl cell lysates were added to the wells and incubated for 1 hr at 37° C. The wells were then washed thrice by adding 200 μl of PBS-T by soaking the wells for 30 secs before each wash. Biotinylated-Hyaluronic acid (HA) antibody followed by Streptavidin-HRP was added to form an immune complex and incubated for 60 mins at 37° C. The solution was aspirated and the wells washed thrice with 200 μl wash solution by soaking the wells for 30 secs. 50 μl of both Chromogen A and Chromogen B was added to each well. The plate was incubated for 15 mins away from light at 37° C. The reaction was stopped by adding 50 μl Stop Solution and the absorbance was read at 450 nm.
(In an ELISA, binding on a coated surface is turned into a signal by an enzyme label.)

In another test the test system is TNF-α. Kind of test: Production of TNF-α by human monocytic cell line THP-1. Format: cell-based. Particulars: Homo sapiens, THP-1. The method, then:
THP-1 cells are commercially available. Cultured cells can be placed in RPMI complete medium in microtitre plates (e.g. […] in 96 well plates) and after 24 hrs incubation, PMA (10 ng/mi) added to 96 well plate to differentiate THP-1 cells and to determine the effects on TNF-α and IL-10 production. The cells should be pre-treated with cucumber extract at, for example, 200 μg/ml to 25 μg/ml followed by 2 hr LPS (100 ng/ml) stimulation. Post incubation, the cell supernatant is aspirated from each of the wells into sterile micro centrifuge tubes and centrifuged at 1000 rpm for 2-3 mins to settle any cells if present. The cell supernatant is then used for evaluation of presence of TNF-α or IL-10 using ELISA. Sandwich ELISA plates coated with suitable antibody are widely available (e.g. R&D Systems, USA).
A second study indicated even greater activity for idoBR1 in human blood (significant at 0.01 μM) with pre-incubation. […] The data clearly indicate that idoBR1 can inhibit the production of TNF-α in human blood. Thus, it appears that it may be a potent anti-inflammatory agent. It also appears that it may be acting via a novel mechanism distinct from the steroid receptor pathways.

As for `O=C(O)[C@@H]1NC[C@H](O)[C@@H](O)[C@@H]1O` [idoBR1, (2R,3R,4R,5S)-3,4,5-trihydroxypiperidine-2-carboxylic acid], the CD44-HA is 101.48 ng/mL in the test on CD44-HA binding (12.5 μg/mL), 94.93 ng/mL in the test on CD44-HA binding (25 μg/mL), 88.43 ng/mL in the test with CD44-HA binding (50 μg/mL) and 81.04 ng/mL in the test on CD44-HA binding (100 μg/mL). In addition, the “% reduction in CD44-HA levels” value in the test with CD44-HA binding (12.5 μg/mL) is listed as 8.12%; in the test with CD44-HA binding (25 μg/mL), 14.05%; in the test on CD44-HA binding (50 μg/mL), 19.93%; in the test with CD44-HA binding (100 μg/mL) it was 26.62%. This molecule also displayed an inhibition at 10 µM in the test on TNF-α (10 μM) of more than 50%. For the same molecule, the IC50 with TNF-α (48 hr preincubation, read-out: IC50 for inhibition of the production of TNF-α by THP-1 cells) is 27 nM.
